Consider nine compounds from PubChem BioAssay (NCI).

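Where inhibition never reached the appropriate level, the endpoint shown equals the highest concentration tested. Otherwise, values were interpolated linearly from a five-concentration, 48-hour dose response in 96-well plates. TGI marks complete inhibition of growth.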 Where a SMILES comes first, the peptide text is derived from it. The star is where a group is joined. Ethyl(2-NMe3+) = C[N+](C)(C)CC*; Boc = CC(C)(C)OC(=O)* Some results are limits rather than exact numbers.

Test systems include TK-10 renal; HCC-2998 colon; PC-3 prostate; 786-0 renal; HL-60(TB) leukemia; NCI/ADR-RES ovarian; OVCAR-4 ovarian; RXF 393 renal; UACC-62 melanoma; SK-OV-3 ovarian; OVCAR-8 ovarian; SN12C renal; MDA-MB-435; MALME-3M melanoma; NCI-H226 lung; SK-MEL-2 melanoma.
What all share (experiment): NCI tumour cell line growth inhibition, 48 h

Regarding `O=C(Cc1ccc(Cl)cc1)Nc1ccc2oc(-c3ccccc3)nc2c1`, the TGI in the assay with TK-10 renal, in the assay on HCC-2998 colon, in the assay with PC-3 prostate, with 786-0 renal, in the assay on HL-60(TB) leukemia and in the assay with NCI/ADR-RES ovarian was more than 100 µM throughout. For the same compound, the TGI in the assay with OVCAR-4 ovarian, with RXF 393 renal, in the assay on UACC-62 melanoma, in the assay on SK-OV-3 ovarian, in the assay with OVCAR-8 ovarian and in the assay with SN12C renal was more than 100 µM in each case. Besides, the TGI with MDA-MB-435, with MALME-3M melanoma, in the assay on NCI-H226 lung and in the assay on SK-MEL-2 melanoma was more than 100 µM each time.

On to `O=C(NNCc1ccco1)c1cc2ccccc2[nH]1`, for which the TGI is more than 100 µM in the assay with TK-10 renal; more than 90.1 µM with HCC-2998 colon; more than 100 µM in the assay with PC-3 prostate; more than 100 µM with 786-0 renal; 96.9 µM with HL-60(TB) leukemia; more than 80.8 µM in the assay with NCI/ADR-RES ovarian. For the same compound, the TGI in the assay with OVCAR-4 ovarian was more than 71.8 µM; with RXF 393 renal it was more than 100 µM; in the assay on UACC-62 melanoma, more than 100 µM; in the assay with SK-OV-3 ovarian it was more than 100 µM; in the assay with OVCAR-8 ovarian, more than 86.5 µM; in the assay on SN12C renal, more than 100 µM. Besides, the TGI in the assay on MDA-MB-435, with MALME-3M melanoma, in the assay on NCI-H226 lung and in the assay on SK-MEL-2 melanoma was more than 100 µM each time.

Regarding `Nc1ccc(S(=O)(=O)Nc2ccc(Nc3c4ccccc4nc4ccccc34)cc2)cc1`, the TGI in the assay on TK-10 renal is 9.55 µM; in the assay with HCC-2998 colon, 8.2 µM; in the assay with PC-3 prostate, 17.4 µM; with 786-0 renal, 0.352 µM; with HL-60(TB) leukemia, 0.183 µM; with NCI/ADR-RES ovarian, 19.8 µM. The TGI in the assay with OVCAR-4 ovarian stood at 17.1 µM; in the assay on RXF 393 renal it was 13.7 µM; in the assay with UACC-62 melanoma, 3.66 µM; in the assay on SK-OV-3 ovarian, 0.501 µM; in the assay on OVCAR-8 ovarian, 10 µM; in the assay with SN12C renal, 0.628 µM. Also, the TGI with MDA-MB-435 was 53 µM; in the assay with MALME-3M melanoma, 10.8 µM; in the assay on NCI-H226 lung, 0.851 µM; in the assay on SK-MEL-2 melanoma, 15.9 µM.

Regarding `COc1ccc(C2=NN(C(N)=S)C(c3ccccc3)C2)cc1` (centres undefined), the TGI with TK-10 renal is more than 100 µM; with HCC-2998 colon it was more than 100 µM; with PC-3 prostate it was 97.5 µM; in the assay on 786-0 renal it was more than 100 µM; with HL-60(TB) leukemia it was 52.9 µM; in the assay on NCI/ADR-RES ovarian, more than 100 µM. Further, the TGI in the assay on OVCAR-4 ovarian is more than 100 µM; in the assay on RXF 393 renal, 88.4 µM; in the assay on UACC-62 melanoma, more than 100 µM; in the assay with SK-OV-3 ovarian, more than 100 µM; with OVCAR-8 ovarian it was more than 100 µM; in the assay with SN12C renal, more than 100 µM. Moreover, the TGI with MDA-MB-435 was more than 100 µM; in the assay on MALME-3M melanoma, 82.2 µM; in the assay with NCI-H226 lung, more than 100 µM; in the assay with SK-MEL-2 melanoma, 78.4 µM.

On to `COc1ccc(N2C(=O)C(C)SC2c2cc3cc(Br)ccc3nc2Cl)cc1` (centres undefined), for which the TGI was 91.4 µM with TK-10 renal; more than 100 µM in the assay on HCC-2998 colon; more than 100 µM with PC-3 prostate; more than 100 µM with 786-0 renal; 74.7 µM with HL-60(TB) leukemia; 85.8 µM in the assay on NCI/ADR-RES ovarian. The TGI with OVCAR-4 ovarian is more than 100 µM; in the assay with RXF 393 renal, 93.6 µM; in the assay with UACC-62 melanoma, more than 100 µM; with SK-OV-3 ovarian, more than 100 µM; with OVCAR-8 ovarian it was more than 100 µM; with SN12C renal, more than 100 µM. In addition, the TGI with MDA-MB-435 is 50.5 µM; in the assay with MALME-3M melanoma, more than 100 µM; with NCI-H226 lung it was more than 100 µM; with SK-MEL-2 melanoma, 48.4 µM.

`Nc1nc2n[nH]nc2c(=O)[nH]1`: the TGI in the assay on TK-10 renal was 12.7 µM; in the assay with HCC-2998 colon it was more than 100 µM; in the assay with PC-3 prostate, more than 100 µM; with 786-0 renal it was more than 100 µM; with HL-60(TB) leukemia, 16.5 µM; with NCI/ADR-RES ovarian, more than 100 µM. Moreover, the TGI in the assay on OVCAR-4 ovarian is more than 100 µM; in the assay on RXF 393 renal, 2.95 µM; in the assay with UACC-62 melanoma, 2.62 µM; with SK-OV-3 ovarian it was 9.21 µM; in the assay with OVCAR-8 ovarian it was more than 100 µM; in the assay with SN12C renal, more than 100 µM. In addition, the TGI in the assay with MDA-MB-435 amounted to 29 µM; in the assay with MALME-3M melanoma it was 16.8 µM; in the assay with NCI-H226 lung it was 57.5 µM; in the assay on SK-MEL-2 melanoma, 1.69 µM.

In the case of `CC1(c2cccc(Cl)c2)CC(c2cccc(Cl)c2)=C(C#N)C(=C(C#N)C#N)N1` (centres undefined), the TGI in the assay with TK-10 renal was found to be 31.8 µM; in the assay with HCC-2998 colon, 30.3 µM; in the assay on PC-3 prostate, 34.3 µM; in the assay with 786-0 renal, 30.1 µM; in the assay on HL-60(TB) leukemia, 46.2 µM; in the assay on NCI/ADR-RES ovarian, 48.1 µM. Moreover, the TGI with OVCAR-4 ovarian came out at 32.6 µM; in the assay with RXF 393 renal, 29.3 µM; in the assay on UACC-62 melanoma, 34.6 µM; in the assay on SK-OV-3 ovarian it was 32.8 µM; with OVCAR-8 ovarian it was 42.6 µM; in the assay with SN12C renal it was 36.4 µM. Also, the TGI with MDA-MB-435 was 35.3 µM; in the assay with MALME-3M melanoma it was 35.2 µM; in the assay on NCI-H226 lung, 60.9 µM; in the assay on SK-MEL-2 melanoma, 64.8 µM.

On to `C=CC[C@@]1([C@H](C=C)COCc2ccc(OC)cc2)CC[C@]2(C)OC(C)(C)[C@@H](c3ccccc3)N2C1=S`, for which the TGI in the assay on TK-10 renal, in the assay on HCC-2998 colon, with PC-3 prostate, with 786-0 renal, with HL-60(TB) leukemia and in the assay on NCI/ADR-RES ovarian was more than 100 µM in each case. Besides, the TGI with OVCAR-4 ovarian, with RXF 393 renal, with UACC-62 melanoma, in the assay with SK-OV-3 ovarian, with OVCAR-8 ovarian and in the assay with SN12C renal was more than 100 µM each time. Further, the TGI in the assay on MDA-MB-435 is more than 100 µM; in the assay on MALME-3M melanoma, more than 100 µM; in the assay on NCI-H226 lung it was more than 100 µM; in the assay with SK-MEL-2 melanoma, 62.3 µM.

Take `CC(NC(=O)C(Cc1ccc(OCC[N+](C)(C)C)cc1)NC(=O)OC(C)(C)C)C(=O)NC(Cc1ccccc1)C(=O)NCC(N)=O` (centres undefined) (Boc-Y(Ethyl(2-NMe3+))AFG-NH2; configuration not given here): the TGI in the assay with TK-10 renal is 24 µM; in the assay on HCC-2998 colon, 48.8 µM; with PC-3 prostate, more than 100 µM; with 786-0 renal it was 44.6 µM; in the assay on HL-60(TB) leukemia, more than 100 µM; in the assay on NCI/ADR-RES ovarian it was more than 100 µM. Besides, the TGI is more than 100 µM in the assay with OVCAR-4 ovarian; 24 µM in the assay on RXF 393 renal; 71.7 µM in the assay with UACC-62 melanoma; 22.7 µM with SK-OV-3 ovarian; 55.3 µM with OVCAR-8 ovarian; more than 100 µM in the assay with SN12C renal. The TGI is more than 100 µM in the assay with MDA-MB-435, 69.7 µM with MALME-3M melanoma, 59 µM in the assay on NCI-H226 lung and 25.2 µM in the assay on SK-MEL-2 melanoma.
